The values that follow come from ChEMBL document CHEMBL3399921, “Novel 2-(2-phenalkyl)-1H-benzo[d]imidazoles as antitubercular agents. Synthesis, biological evaluation and structure-activity relationship” (Bioorg Med Chem, 2015).

Values after ≈ are worked out from the molar mass of the structure shown.

The subject of the assay is Mycobacterium tuberculosis variant bovis. Briefly: Tuberculostatic activity against Mycobacterium bovis by two-fold classical test-tube method. The class given is functional.
For `Cc1cc2nc(CCc3cc(Cl)cc(Cl)c3)[nH]c2cc1C`, 19 µM (≈ 6.07 µg/mL) was the least that counted as inhibitory (MIC).

For `Nc1c(NC(=O)CCc2cc(Cl)cc(Cl)c2)cc(Cl)cc1[N+](=O)[O-]`, the lowest concentration to inhibit growth (MIC) was 65 µM (≈ 25.3 µg/mL).

With `Cc1cc2nc(CCc3ccccc3)[nH]c2cc1C`, the MIC (usually the lowest concentration found to suppress growth) came out at 6.3 µM (≈ 1.58 µg/mL).
